Several values for one entry are separate records, joined by “and”; a condition that tells them apart may be missing. Equal entries are not always repeated.
Target: FIH (Homo sapiens, UniProt Q9NWT6)
Assay: Mechanism of FIH inhibition: 2OG kinetics at variable concentrations of 18 (Ki, Cornish-Bowden plot)
Type: biochemical
Parameters: FIH reaction rate at variable 2OG and compound 18 concentrations (Figure 5a): unit not given here
Description: Supplementary Figure 28. Determination of the FIH Kapp for 4-(3-phenylprop-1-yl)-2OG (18) (continues on […]
the following page). […]
(LAA), and 20 μM ammonium iron(II) sulfate hexahydrate (FAS, (NH4)2Fe(SO4)2·6H2O) in buffer (50 mM Tris, 50 mM NaCl, pH 7.5, 20° C). Measurement times were normalized to the first sample injection analyzed after the […]
are shown as the mean of independent triplicates (n = 3; mean ± standard deviation, SD). […]
2OG concentrations, determined in the presence of 0.5 μM 18; (e) hydroxylation rates used for the kinetic analysis; […]

FIH, sequence (Q9NWT6 whole entry): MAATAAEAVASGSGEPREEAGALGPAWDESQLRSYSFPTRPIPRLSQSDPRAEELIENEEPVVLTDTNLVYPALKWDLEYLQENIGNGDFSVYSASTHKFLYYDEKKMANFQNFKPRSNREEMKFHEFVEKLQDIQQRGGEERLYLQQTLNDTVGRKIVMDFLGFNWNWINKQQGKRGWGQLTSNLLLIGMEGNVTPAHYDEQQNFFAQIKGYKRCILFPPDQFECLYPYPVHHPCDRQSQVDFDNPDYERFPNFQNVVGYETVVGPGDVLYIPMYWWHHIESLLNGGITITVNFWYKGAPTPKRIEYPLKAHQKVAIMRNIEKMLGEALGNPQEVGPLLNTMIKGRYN

`O=C(O)C(=O)CC(CCCc1ccccc1)C(=O)O` (stereo not drawn) [compound 18, 4-(3-phenylpropyl)-2OG] was tested, and the “2OG concentration / rate, Cornish-Bowden plot (Figure 5b)” value (shortened to “2OG concentration / rate”) (0.5 μM 18, 2 μM 2OG) was 738.825 and 619.579 and 831.947, the “2OG concentration / rate” value (0.5 μM 18, 4 μM 2OG) was 1161.44 and 956.709 and 1175.78 and the “2OG concentration / rate” value (0.5 μM 18, 8 μM 2OG) was 1892.15 and 1526.72 and 1620.09. The “2OG concentration / rate” value (0.5 μM 18, 16 μM 2OG) was 2827.85 and 3158.93 and 3165.81, the “2OG concentration / rate” value (0.5 μM 18, 32 μM 2OG) was 6761.04 and 5757.47 and 6079.03 and the “2OG concentration / rate” value (0.5 μM 18, 64 μM 2OG) was 11329.4 and 12181.2 and 11500.5. For the same molecule, the “FIH reaction rate at variable 2OG and compound 18 concentrations (Figure 5a)” value (from here on “FIH reaction rate”) (0.5 μM compound 18, 0 μM 2OG) was 0, the “FIH reaction rate” value (0.5 μM compound 18, 0.5 μM 2OG) was 0.000919 and 0.000982 and 0.001057 and the “FIH reaction rate” value (0.5 μM compound 18, 1 μM 2OG) was 0.001502 and 0.002201 and 0.001615. For the same molecule, the “FIH reaction rate” value (0.5 μM compound 18, 2 μM 2OG) was 0.002707 and 0.003228 and 0.002404, the “FIH reaction rate” value (0.5 μM compound 18, 4 μM 2OG) was 0.003444 and 0.004181 and 0.003402 and the “FIH reaction rate” value (0.5 μM compound 18, 8 μM 2OG) was 0.004228 and 0.00524 and 0.004938. For the same molecule, the “FIH reaction rate” value (0.5 μM compound 18, 16 μM 2OG) was 0.005658 and 0.005065 and 0.005054, the “FIH reaction rate” value (0.5 μM compound 18, 32 μM 2OG) was 0.004733 and 0.005558 and 0.005264 and the “FIH reaction rate” value (0.5 μM compound 18, 64 μM 2OG) was 0.005649 and 0.005254 and 0.005565. The “2OG concentration / rate” value (1 μM 18, 2 μM 2OG) was 1398.6 and 985.222 and 1090.51, the “2OG concentration / rate” value (1 μM 18, 4 μM 2OG) was 1161.44 and 1382.65 and 1432.15 and the “2OG concentration / rate” value (1 μM 18, 8 μM 2OG) was 2089.32 and 1965.12 and 2137.89. The “2OG concentration / rate” value (1 μM 18, 16 μM 2OG) was 3148.99 and 3185.35 and 3256, the “2OG concentration / rate” value (1 μM 18, 32 μM 2OG) was 5969.04 and 5882.35 and the “2OG concentration / rate” value (1 μM 18, 64 μM 2OG) was 12176.6 and 10488.4. For the same molecule, the “FIH reaction rate” value (1.0 μM compound 18, 0 μM 2OG) was 0, the “FIH reaction rate” value (1.0 μM compound 18, 0.5 μM 2OG) was 0.000462 and 0.000537 and 0.000636 and the “FIH reaction rate” value (1.0 μM compound 18, 1 μM 2OG) was 0.000809 and 0.001158 and 0.001225. The “FIH reaction rate” value (1.0 μM compound 18, 2 μM 2OG) was 0.00143 and 0.00203 and 0.001834, the “FIH reaction rate” value (1.0 μM compound 18, 4 μM 2OG) was 0.003444 and 0.002893 and 0.002793 and the “FIH reaction rate” value (1.0 μM compound 18, 8 μM 2OG) was 0.003829 and 0.004071 and 0.003742. The “FIH reaction rate” value (1.0 μM compound 18, 16 μM 2OG) was 0.005081 and 0.005023 and 0.004914, the “FIH reaction rate” value (1.0 μM compound 18, 32 μM 2OG) was 0.005361 and 0.00544 and the “FIH reaction rate” value (1.0 μM compound 18, 64 μM 2OG) was 0.005256 and 0.006102. The “2OG concentration / rate” value (2 μM 18, 2 μM 2OG) was 2902.76 and 2272.73 and 1572.33, the “2OG concentration / rate” value (2 μM 18, 4 μM 2OG) was 2503.13 and 2493.77 and 2115.28 and the “2OG concentration / rate” value (2 μM 18, 8 μM 2OG) was 3164.56 and 2950.94 and 2606.71. The “2OG concentration / rate” value (2 μM 18, 16 μM 2OG) was 5053.7 and 4190.68 and 4087.89, the “2OG concentration / rate” value (2 μM 18, 32 μM 2OG) was 7228.37 and 7157.24 and 7025.25 and the “2OG concentration / rate” value (2 μM 18, 64 μM 2OG) was 11617.4 and 13556.5. The “FIH reaction rate” value (2.0 μM compound 18, 0 μM 2OG) was 0, the “FIH reaction rate” value (2.0 μM compound 18, 1 μM 2OG) was 0.000474 and 0.000421 and 0.000679 and the “FIH reaction rate” value (2.0 μM compound 18, 2 μM 2OG) was 0.000689 and 0.00088 and 0.001272. The “FIH reaction rate” value (2.0 μM compound 18, 4 μM 2OG) was 0.001598 and 0.001604 and 0.001891, the “FIH reaction rate” value (2.0 μM compound 18, 8 μM 2OG) was 0.002528 and 0.002711 and 0.003069 and the “FIH reaction rate” value (2.0 μM compound 18, 16 μM 2OG) was 0.003166 and 0.003818 and 0.003914. The “FIH reaction rate” value (2.0 μM compound 18, 32 μM 2OG) was 0.004427 and 0.004471 and 0.004555, the “FIH reaction rate” value (2.0 μM compound 18, 64 μM 2OG) was 0.005509 and 0.004721 and the “2OG concentration / rate” value (4 μM 18, 2 μM 2OG) was 4319.65 and 4926.11 and 3120.12. For the same molecule, the “2OG concentration / rate” value (4 μM 18, 4 μM 2OG) was 4866.18 and 5181.35 and 3610.11, the “2OG concentration / rate” value (4 μM 18, 8 μM 2OG) was 5025.13 and 6092.92 and the “2OG concentration / rate” value (4 μM 18, 16 μM 2OG) was 7045.35 and 7289.29 and 6153.85. The “2OG concentration / rate” value (4 μM 18, 32 μM 2OG) was 9395.18 and 8886.42 and 8623.01, the “2OG concentration / rate” value (4 μM 18, 64 μM 2OG) was 15241.7 and 14522.4 and 14719.4 and the “FIH reaction rate” value (4.0 μM compound 18, 0 μM 2OG) was 0. The “FIH reaction rate” value (4.0 μM compound 18, 2 μM 2OG) was 0.000463 and 0.000406 and 0.000641, the “FIH reaction rate” value (4.0 μM compound 18, 4 μM 2OG) was 0.000822 and 0.000772 and 0.001108 and the “FIH reaction rate” value (4.0 μM compound 18, 8 μM 2OG) was 0.001592 and 0.001313 and 0.00107. For the same molecule, the “FIH reaction rate” value (4.0 μM compound 18, 16 μM 2OG) was 0.002271 and 0.002195 and 0.0026, the “FIH reaction rate” value (4.0 μM compound 18, 32 μM 2OG) was 0.003406 and 0.003601 and 0.003711 and the “FIH reaction rate” value (4.0 μM compound 18, 64 μM 2OG) was 0.004199 and 0.004407 and 0.004348. The Ki (non-linear regression, HIF-1α788–822, 2OG-competitive) was roughly 200 nM, the “FIH Kmapp for 2OG” value (presence of 0.5 μM 18) was 2.12 ± 0.20 µM and the “FIH vmaxapp for 2OG” value (presence of 0.5 μM 18) was 5.8 ± 0.1 10-3 μM·s-1. The “FIH Kmapp for 2OG” value (presence of 1.0 μM 18) was 4.58 ± 0.34 µM, the “FIH vmaxapp for 2OG” value (presence of 1.0 μM 18) was 6.2 ± 0.1 10-3 μM·s-1 and the “FIH Kmapp for 2OG” value (presence of 2.0 μM 18) was 9.62 ± 0.91 µM. For the same molecule, the “FIH vmaxapp for 2OG” value (presence of 2.0 μM 18) was 5.9 ± 0.2 10-3 μM·s-1, the “FIH Kmapp for 2OG” value (presence of 4.0 μM 18) was 25.1 ± 2.5 µM and the “FIH vmaxapp for 2OG” value (presence of 4.0 μM 18) was 6.1 ± 0.3 10-3 μM·s-1.
